Patent US12383556B2, “Methods of treating Sjögren's syndrome using a Bruton's tyrosine kinase inhibitor” (NOVARTIS AG, priority 2019, dated 2025)
Read-outs that look alike come from different tables or passages of the source.

Tests used:
[1] = First-in-human Part 4 multiple dose b.i.d. blood PK; assay type: in vivo
Source text: (§1) First-in-human study in up to approximately 168 healthy volunteers (HVs), of which 64 (in Parts 2 & 4) had asymptomatic atopic diathesis. • Part 1 was a double-blind (subject and investigator blind, sponsor unblinded), placebo-controlled single ascending dose (SAD) escalation study of 10 cohorts (N=80) • Part 2 was a double-blind (subject and investigator blind, sponsor unblinded), placebo-controlled multiple ascending dose (MAD) (13 doses over 12 days) escalation study employing once daily dosing in 6 cohorts in healthy volunteers with asymptomatic atopic diathesis (N=48) • Part 3 was a single dose open-label crossover food effect study in 12 HVs • Part 4 was a double-blind (subject and investigator blind, sponsor unblinded), placebo-controlled multiple dose (25 doses over 12 days) study employing twice daily dosing in 2 cohorts of healthy volunteers with asymptomatic atopic diathesis (N=16)
In Parts 2 and 4, subjects were admitted on Day −2 or −1 for baseline safety assessments and to confirm eligibility. Eligible subjects received the first dose of compound (I) under fasting conditions on Day 1, and continued to take study medication under fasting conditions up to and including Day 12. Subjects were domiciled from Day −2 or −1 until the morning of Day 16, which equals 96 hours after the last dose of compound (I) was received. In Parts 2 and 4, the study medication was given once daily and twice daily respectively (details are found in the schedule of assessments).
Subjects were assigned to one of the following cohorts. In each cohort, 8 subjects were randomized to either Compound (I) or matching placebo in a 6:2 ratio. • Cohort 1: multiple oral doses of 100 mg Compound (I) or matching placebo in a bid regimen • Cohort 2: multiple oral doses of 200 mg Compound (I) or matching placebo in a bid regimen
Pharmacokinetic samples were obtained in blood and evaluated in all subjects at all dose levels. The samples from placebo subjects were not analyzed. […] Compound (I) concentrations were determined in blood by a validated LC-MS/MS method.

[2] = First-in-human Part 3 food effect PK, single 60 mg dose; assay type: in vivo; details: for Tmax / AUC(0-t): human, oral, 60 mg
Source text: as §1
Part 3 was an open-label, randomized, two-way cross-over, single dose study to assess food effects. In Part 3, each subject participated in a 28 day screening period (Day −29 to −2), 2 baseline (Day −1) and 2 treatment periods, each consisting of a single dose administration on Day 1 followed by safety and PK assessment up to Day 5. Treatment period 2 consisted of a follow-up visit and an end of study evaluation on Day 22 and 40, respectively. The two treatment periods were separated by a wash-out period of at least 18 days (+/−1 day).
Subjects were randomized to one of the 2 treatment sequences in the ratio of 1:1:
Pharmacokinetic samples were obtained in blood and evaluated in all subjects at all dose levels. The samples from placebo subjects were not analyzed. The samples for PK assessments from subjects were collected at time points defined in the study. Compound (I) concentrations were determined in blood by a validated LC-MS/MS method.

BTK [3] = assay: BTK occupancy ex vivo immunoassay (biotinylated BTK probe) in tissues after oral dosing; set-up: species or system rat; details: spleen of rodents
Description: (§2) The in vivo PD effects of an irreversible BTK inhibitor like compound (I) are determined by the extent and duration of covalent BTK occupancy by the inhibitor. BTK occupancy after treatment with Compound of Formula (I) (also referenced to as Compound (I)) was measured in an ex vivo immunoassay. The fraction of unoccupied BTK protein was assayed after in vitro incubation with a covalent biotinylated BTK probe, since compound (I) and the probe bind to BTK in a mutually exclusive manner. Unoccupied BTK, as well as total BTK relative protein levels were determined in lysates of selected tissues and levels of unoccupied BTK were normalized to total BTK protein levels in the same samples.
(§3) From the experimental data it was apparent that a short transient systemic exposure of compound (I) is sufficient to achieve full BTK occupancy in several tissues at low oral doses of 1-3 mg/kg. […] This very low and transient systemic exposure is consistent with the PK/PD model typical of irreversible inhibitors.
(§4) The duration of BTK occupancy was determined in rats and mice after single oral dose of compound (I) for spleen, blood, lymph nodes and lung. […] The longer persistence of BTK occupancy in blood has been reported before (Advani et al 2013, J Clin Onc; 31(1):88-94).

BTK [4] = target: T1, BTK (Rattus norvegicus, UniProt Q5S255); assay: as above
T1 construct: total BTK relative protein levels were determined in lysates of selected tissues; from tissue; host or cells: rat spleen, blood, lymph nodes, lung (lysates)
T1 sequence (Q5S255 1-660): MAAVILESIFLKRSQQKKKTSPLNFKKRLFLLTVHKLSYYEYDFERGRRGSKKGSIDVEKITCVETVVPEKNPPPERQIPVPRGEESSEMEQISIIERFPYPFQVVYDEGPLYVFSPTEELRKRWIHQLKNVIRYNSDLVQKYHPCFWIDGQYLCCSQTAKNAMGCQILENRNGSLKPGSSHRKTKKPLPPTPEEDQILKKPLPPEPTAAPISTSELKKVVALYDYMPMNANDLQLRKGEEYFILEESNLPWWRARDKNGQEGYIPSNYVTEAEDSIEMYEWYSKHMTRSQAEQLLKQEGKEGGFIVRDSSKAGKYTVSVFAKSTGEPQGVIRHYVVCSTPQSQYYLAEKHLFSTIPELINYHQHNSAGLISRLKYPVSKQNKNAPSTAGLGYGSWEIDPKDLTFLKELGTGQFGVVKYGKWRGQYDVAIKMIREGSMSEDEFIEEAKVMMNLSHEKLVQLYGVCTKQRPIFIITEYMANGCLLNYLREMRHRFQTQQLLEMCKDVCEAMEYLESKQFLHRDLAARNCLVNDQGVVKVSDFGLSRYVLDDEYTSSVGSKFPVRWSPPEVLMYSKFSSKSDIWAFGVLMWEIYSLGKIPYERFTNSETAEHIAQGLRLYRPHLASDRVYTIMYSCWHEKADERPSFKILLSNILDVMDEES
Description: as §2, §3, §4

[5] = Safety and tolerability in healthy volunteers (first-in-human study); assay type: in vivo; details: for overall safety assessment: dosing up to 600 mg (200 mg twice daily)
Description: Standard safety monitoring was used throughout all study parts. A dedicated assessment of potential skin bruising events were included. All vital signs, physical examination and subject history, ECGs, adverse events, and laboratory safety parameters (blood chemistry, hematology and urinalysis) up to 96 hours post last dose as well as PK data from the previous dose group (if available) up to 48 hours post last dose were to be reviewed in a blinded fashion for each cohort before dose escalation. Summary safety reports of reported adverse events, clinical safety laboratory parameters, QTc and heart rate were provided after completion of each dose level.
For the analysis of adverse effects, the Placebo subjects from all SAD and MAD cohorts (2 per cohort) and separated by the SAD and MAD parts were pooled into one Placebo group (n=20 for SAD and n=16 for MAD) to be compared with each single compound (I) dose group (n=6 each) and the total compound (I) group (n=60 for SAD and n=48 for MAD). There were no apparent major differences in the demographic data between placebo and the active groups both for the SAD and MAD populations.

[6] = single dose 60 mg, FAST, Geomean
[7] = single dose 60 mg, FED, Geomean

SMILES: C=CC(=O)N(C)CCOc1c(N)ncnc1-c1cc(F)cc(NC(=O)c2ccc(C3CC3)cc2F)c1C [Compound of Formula (I), N-(3-(6-Amino-5-(2-(N-methylacrylamido)ethoxy)pyrimidin-4-yl)-5-fluoro-2-methylphenyl)-4-cyclopropyl-2-fluorobenzamide]
- increase of AUCtau from 100 mg to 200 mg b.i.d. ([1]; day 12): dose proportional increase
- increase of Cmax from 100 mg to 200 mg b.i.d. ([1]; day 12): 1.33 fold
- Tmax ([1]; human, blood, oral, b.i.d. regimen 100 mg and 200 mg): ~1 h
- Tmax ([2]; blood, fasted, read-out: mean Tmax): 1 h
- Tmax ([2]; blood, fed, read-out: mean Tmax): > 3 h
- AUC(0-t) ([2]; blood, single dose 60 mg, FAST, Geomean, read-out: AUC0-24): 182 ng·h/mL
- AUC(0-t) ([2]; blood, single dose 60 mg, FAST, Geomean, read-out: AUClast): 177 ng·h/mL
- AUC(0-t) ([2]; blood, single dose 60 mg, FAST, Mean, read-out: AUC0-24): 202 ng·h/mL
- AUC(0-t) ([2]; blood, single dose 60 mg, FAST, Mean, read-out: AUClast): 196 ng·h/mL
- Tmax ([2]; blood, single dose 60 mg, FED, Geomean, read-out: Tmax): 3.18 h
- Tmax ([2]; whole blood, single dose 60 mg, FAST, Geomean, read-out: Tmax): 0.95 h
- Tmax ([2]; whole blood, single dose 60 mg, FAST, Mean, read-out: Tmax): 1.02 h
- AUC(0-t) ([2]; whole blood, single dose 60 mg, FED, Geomean, read-out: AUC0-24): 249 ng·h/mL
- AUC(0-t) ([2]; whole blood, single dose 60 mg, FED, Mean, read-out: AUC0-24): 264 ng·h/mL
- AUC(0-t) ([2]; whole blood, single dose 60 mg, FED, Mean, read-out: AUClast): 252 ng·h/mL
- Tmax ([2]; whole blood, single dose 60 mg, FED, Mean, read-out: Tmax): 3.42 h
- Cmax [2, 6]: 100.95 ng/mL
- Tlast [2, 6]: 9.66 h
- Cmax ([2]; single dose 60 mg, FAST, Mean): 114.81 ng/mL
- Tlast ([2]; single dose 60 mg, FAST, Mean): 10.50 h
- AUClast [2, 7]: 237.84 ng·h/mL
- Cmax [2, 7]: 80.86 ng/mL
- Tlast [2, 7]: 9.25 h
- Cmax ([2]; single dose 60 mg, FED, Mean): 83.39 ng/mL
- Tlast ([2]; single dose 60 mg, FED, Mean): 9.50 h
- higher AUC0-24 fed vs fasted ([2]; single oral dose 60 mg): 1.4 fold
- lower Cmax fed vs fasted ([2]; single oral dose 60 mg): 1.25 fold
- BTK turnover in tissue (spleen) (BTK [3]): approximately 5 hours
- BTK occupancy in blood (BTK [4]; female rats, single oral dose): consistent with those observed in spleen
- spleen BTK occupancy (BTK [4]; female rats, single oral dose 3 mg/kg): full
- receptor occupancy at 0.3 mg/kg (BTK [4]; rat, female rats, single oral dose 0.3 mg/kg, read-out: spleen BTK occupancy): 30%
- receptor occupancy at 1 mg/kg (BTK [4]; rat, female rats, single oral dose 1 mg/kg, read-out: spleen BTK occupancy): 76 to 81%
- BTK occupancy half-life in blood (BTK [4]; rats, single oral dose): approximately 87 hours
- BTK occupancy half-life in spleen (BTK [4]; rats, single oral dose): approximately 5 hours
- serious or severe adverse events related to intake ([5]; 0.5 mg to 600 mg, healthy volunteers): no serious or severe adverse event
- tolerability ([5]; 0.5 mg to 600 mg, single dose or up to 18 days once or twice daily): well tolerated
- overall safety assessment [5]: proven to be safe
- overall safety assessment ([5]; listed as compound (I)): does not reveal significant safety concerns
- nature of observed adverse events ([5]; healthy volunteers): generally mild in nature
